Data on 11 molecules can be found in US4389394A, “Methods for reducing dental caries” (Talres Development (N.A.) N.V., priority 1978, dated 1983).

Molecules are shown by their SMILES. Entries after “also recorded” stand apart in the source; their conditions may differ.

The conditions of assay [1]: West German Offenlegungsschrift No. 2700036; cited from earlier work.
The test system of assay [2] is S. mutans. The experiment in a line: Scanning electron microscopy of glass with adherent cells. It counts as cell-based, Streptococcus mutans. The conditions noted are these: sucrose medium; qualitative.
Assay [3] has as its system S. mutans. Description: (C) Further tests on pH reduction. Format: cell-based, Streptococcus mutans. Particulars: for Mean pH: 0.055 molar chlorodeoxy derivative, pooled data for 2, 3 and 4 hours, Duncan procedure. The procedure: (§1) Plain aqueous solutions were used and also solutions containing amino acids (protein hydrolysate) 1% w/v to approximate the buffering effect of natural saliva. Control experiments were effected using no saccharide in order to illustrate the endogenous metabolism of the organism. Each experiment was quadruplicated and was run at 37° C. The pH was measured at 0, 0.5, 1, 1.5,2, 3 and 4 hours.
Twelve sets of tests were carried out in the same way as described above at (A) but using solutions which were 0.055 molar in the respective chlorodeoxy derivative.
Solutions of the following were employed:
(i) Saline, negative control for endogenous metabolism
(ii) Sucrose, positive control
(iii) 6,1',6'-trichloro-6,1',6'-trideoxysucrose, compound no. 7.
(iv) Compound no. 7 plus sucrose.
(v) 1',6'-dichloro-1',6'-dideoxysucrose, compound no. 4
(vi) Compound no. 4 plus sucrose
(vii) 4,1',6'-trichloro-4,1',6'-trideoxygalactosucrose, Compound no. 5.
(viii) Compound no. 5 plus sucrose
(ix) 4,6,6'-trichloro-4,6,6'-trideoxygalactosucrose, Compound no. 6
(x) Compound no. 6 plus sucrose
(xi) 1'-chloro-1'-deoxysucrose, compound no. 1
(xii) Compound no. 1 plus sucrose
The acid production was monitored as before.

In assay [4] the test system is Streptococcus mutans NCTC 10832. The experiment in a line: (A) Effect on reduction of pH by Streptococcus mutans. It counts as cell-based. The conditions noted are these: for pH: 0.05 molar each saccharide, 37° C; for Mean pH: Duncan Procedure sub-sets, amino acids where named in the solution.
Description: Mouth flora such as S. mutans cause dental caries by producing acid which erodes the tooth enamel. The cells exude a polysaccharide which firmly adheres them to the tooth surfaces as plaque, thus enhancing the local erosion by the acid. The effect of chlorodeoxysucroses on acid production by S. mutans in sucrose solutions was studied in comparison with the effect produced by xylitol, an agent proposed as a caries preventative.
as §1

Assay [5] concerns S. mutans. Description: (B) Adherence to teeth: deposition of suspended cells on to glass (Magiscan image analyser). It counts as cell-based, Streptococcus mutans. Particulars: for Coverage (%) after 0.5 h / Coverage (%) after 4.0 h: mean of 40 determinations. The source says: (§2) The extent to which cells of S. mutans adhere to teeth was investigated using a recognized model system. Solutions of the same substances as in (A) were made up, and the degree of deposition of suspended cells on to glass was studied using a "Magiscan" image analyser (Talyer et al., 1978 Praktischen Metallographie, Sonderbande 8: 433-442).
Each reading is the mean of 40 determinations.

In assay [6] the test system is S. mutans. The experiment in a line: (D) Further tests on adherence to teeth. It counts as cell-based, Streptococcus mutans. The conditions noted are these: for % coverage after 0.5 hours / % coverage after 4 hours: glass slide, 0.055 molar, Duncan procedure; for adherence of the cells: statement in words. How it is done:
as §2
While recording the pH during the tests of (C), the adherence was monitored in the same way as in (B). The percentage coverage of a glass slide was determined at 0.5 and 4 hours for each solution, and the results treated by the Duncan procedure.

In the next assay the test system is dental plaque. Description: (F) Human volunteers: acid production by dental plaque after mouthrinse (glucose pre-rinse). Format: in vivo. The conditions noted are these: statement in words. How it is done:
The compound 4,1',6'-trichloro-4,1',6'-trideoxygalactosucrose was selected as a suitable candidate for further testing. A mouthrinse in accordance with the invention was prepared using the selected compound as active ingredient. The level of the active ingredient was initially chosen to be such that the mouthrinse tasted the same as a 15% w/v solution of sucrose.
Six subjects were used, who were first acquainted with the available toxicological data and who subsequently agreed to take part in the tests. The subjects were instructed not to clean their teeth on their day of testing. At sampling time, 0 min, each subject took 5% w/v glucose mouthrinse for 2 minutes, then waited a further 8 minutes before the buccal and lingual plaque of one side of the jaw (upper and lower) was removed and placed on aluminium foil and sealed. […]
Samples (0.2 ml) were tested after admixture with 0.1 ml 5% w/v glucose and 0.2 ml sterile saliva. The pH was monitored in quadruplicated tests.
Pooling of data at different times was not justifiable, and the Duncan procedure could not be followed. Data was therefore analysed by computer using an `Analysis of Variance` program and a `Description of Populations` program.

Where [7] appears, read: 0.5 hours, in the presence of sucrose.

For the molecule `O[C@@H]1[C@@H](O)[C@@H](O[C@]2(CCl)O[C@H](CCl)[C@@H](O)[C@@H]2O)O[C@H](CCl)[C@H]1Cl` [compound 9, 4,6,1',6'-tetrachloro-4,6,1',6'-tetradeoxysucrose], in assay [1], the “sweetness relative to sucrose” value is given as “many times sweeter than sucrose”.
Take `OC[C@H]1O[C@@](CO)(O[C@H]2O[C@H](CO)[C@@H](O)[C@H](O)[C@H]2O)[C@@H](O)[C@@H]1O` [Sucrose, sucrose]: the “extracellular coating and size of clumps of adherent cells” value with S. mutans [2] was “characteristically clumped and were coated with extracellular polysaccharide”. For the same molecule, the “Mean pH” value in the assay on S. mutans [3] is 4.33; in assay [4], 4.57. Also, the pH in assay [4] (0 h, no amino acids) was 5.69; in assay [4] (0 h, with amino acids 1% w/v), 5.98; in assay [4] (0.5 h, no amino acids) it was 4.57; in assay [4] (0.5 h, with amino acids 1% w/v), 5.55; in assay [4] (1.0 h, no amino acids), 4.57; in assay [4] (1.0 h, with amino acids 1% w/v) it was 5.36. Besides, the pH in assay [4] (1.5 h, no amino acids) is on record as 4.58; in assay [4] (1.5 h, with amino acids 1% w/v) it was 5.10; in assay [4] (2.0 h, no amino acids) it was 4.54; in assay [4] (2.0 h, with amino acids 1% w/v), 5.00; in assay [4] (3.0 h, no amino acids), 4.63; in assay [4] (3.0 h, with amino acids 1% w/v), 4.92. Besides, the pH in assay [4] (4.0 h, no amino acids) came out at 4.55; in assay [4] (4.0 h, with amino acids 1% w/v), 4.79. Also, the “Coverage (%) after 0.5 h” value with S. mutans [5] (no amino acid) was 37.28%; in the assay on S. mutans [5] (with amino acid), 31.89%. For the same molecule, the “Coverage (%) after 4.0 h” value is on record as 65.83% with S. mutans [5] (no amino acid) and 75.95% in the assay on S. mutans [5] (with amino acid). Also, the “% coverage after 0.5 hours” value in the assay on S. mutans [6] came out at 51.2%. Moreover, in the assay with S. mutans [6], the “% coverage after 4 hours” value stood at 69.2%.
As for `OC[C@@]1(O[C@H]2O[C@H](CCl)[C@H](Cl)[C@H](O)[C@H]2O)O[C@H](CCl)[C@@H](O)[C@@H]1O` [Compound no. 6, 4,6-dichloro-4,6-dideoxy-α-D-galactopyranosyl-6-chloro-6-deoxy-β-D-fructofuranoside], the “Mean pH” value with S. mutans [3] amounted to 5.20. Also, in assay [1], the “sweetness relative to sucrose” value is reported as “do not possess such strong sweetening action”. Moreover, in the assay on S. mutans [6], the “% coverage after 0.5 hours” value was found to be 51.6% and the “% coverage after 4 hours” value stood at 70.8%.
On to `OC[C@H]1O[C@@](CCl)(O[C@H]2O[C@H](CO)[C@H](Cl)[C@H](O)[C@H]2O)[C@@H](O)[C@@H]1O` [compound 3, 4-chloro-4-deoxy-α-D-galactopyranosyl-1-chloro-1-deoxy-β-D-fructofuranoside], for which the “sweetness relative to sucrose” value in assay [1] is recorded as “many times sweeter than sucrose”.
In the case of `OC[C@H]1O[C@H](O[C@]2(CCl)O[C@H](CCl)[C@@H](O)[C@@H]2O)[C@H](O)[C@@H](O)[C@@H]1O` [Compound no. 4, 1',6'-dichloro-1',6'-dideoxysucrose], in the assay on S. mutans [3], the “Mean pH” value came to 5.48. In assay [1], the “sweetness relative to sucrose” value is recorded as “many times sweeter than sucrose”. Besides, the “adherence of the cells” value is listed as “falling in the sub-set g which includes sucrose itself” with S. mutans [6] (setting [7]) and “did not reduce the adherence” with S. mutans [6] (4 hours). The “% coverage after 0.5 hours” value in the assay with S. mutans [6] worked out at 51.6%. Further, the “% coverage after 4 hours” value in the assay with S. mutans [6] was 70.3%.
Regarding `O[C@@H]1[C@@H](O)[C@@H](O[C@]2(CCl)O[C@H](CCl)[C@@H](O)[C@@H]2O)O[C@H](CCl)[C@H]1O` [Compound no. 7, 6,1',6'-trichloro-6,1',6'-trideoxysucrose], the “Mean pH” value in the assay on S. mutans [3] was found to be 6.48. The “effect on acid production / pH” value in the assay on S. mutans [3] (statement in words, pooled 2, 3 and 4 hours) is given as “especially effective”. The “sweetness relative to sucrose” value in assay [1] was “many times sweeter than sucrose”. Also, the “adherence of the cells” value in the assay on S. mutans [6] (setting [7]) is “most active compounds at 0.5 hours”. Also, in the assay on S. mutans [6] (4 hours), the “adherence of the cells” value is recorded as “the most active”. Further, in the assay on S. mutans [6], the “% coverage after 0.5 hours” value stood at 29.7% and the “% coverage after 4 hours” value turned out to be 54.2%.
Take `O[C@@H]1[C@@H](O)[C@@H](O[C@]2(CCl)O[C@H](CCl)[C@@H](O)[C@@H]2O)O[C@H](CCl)[C@H]1O`: in the assay with dental plaque, the “antiacidogenic effect on plaque” value is listed as “Statistically conclusive proof that the mouthrinse was evincing an anti-acidogenic effect was not available” and the “yield of plaque as perceived by subjects” value is given as “increased the yield of plaque”.
For the molecule `O[C@@H]1[C@@H](O)[C@@H](O[C@]2(CCl)O[C@H](CCl)[C@@H](O)[C@@H]2O)O[C@H](CCl)[C@@H]1Cl` [compound 8, 4,6-dichloro-4,6-dideoxy-α-D-galactopyranosyl-1,6-dichloro-1,6-dideoxy-β-D-fructofuranoside], the “sweetness relative to sucrose” value in assay [1] is reported as “many times sweeter than sucrose”.
With `OC[C@H]1O[C@@](CCl)(O[C@H]2O[C@H](CO)[C@@H](O)[C@H](O)[C@H]2O)[C@@H](O)[C@@H]1O` [Compound no. 1, 1'-chloro-1'-deoxysucrose], the “Mean pH” value in the assay with S. mutans [3] is listed as 5.09. The “sweetness relative to sucrose” value in assay [1] was “do not possess such strong sweetening action”. The “adherence of the cells” value in the assay with S. mutans [6] (setting [7]) was “most active compounds at 0.5 hours”. The “adherence of the cells” value with S. mutans [6] (4 hours) was “the most active”. In the assay on S. mutans [6], the “% coverage after 0.5 hours” value worked out at 35.6% and the “% coverage after 4 hours” value is 52.3%.
Take `OC[C@H]1O[C@@](CO)(O[C@H]2O[C@H](CO)[C@H](Cl)[C@H](O)[C@H]2O)[C@@H](O)[C@@H]1O` [compound 2, 4-chloro-4-deoxy-α-D-galactopyranosyl-β-D-fructofuranoside]: the “sweetness relative to sucrose” value in assay [1] is listed as “do not possess such strong sweetening action”.
With `OC[C@@H](O)[C@H](O)[C@@H](O)CO` [Xylitol, xylitol], the “extracellular coating and size of clumps of adherent cells” value in the assay with S. mutans [2] is recorded as “No such effect was observed”. Moreover, the pH was determined as 5.94 in assay [4] (0 h, no amino acids); 5.50 in assay [4] (0.5 h, no amino acids); 5.42 in assay [4] (1.0 h, no amino acids); 5.39 in assay [4] (1.5 h, no amino acids); 5.32 in assay [4] (2.0 h, no amino acids); 5.38 in assay [4] (3.0 h, no amino acids). The pH in assay [4] (4.0 h, no amino acids) stood at 5.37. The “Mean pH” value in assay [4] turned out to be 5.36. In addition, in assay [4] (statement in words), the “effect on acid production” value is recorded as “never had a statistically significally effect; also recorded: non-cariogenic but not anti-cariogenic; also recorded: gave about the same mean pH as when carbohydrate was excluded”. Also, the degree of adhesion result in the assay with S. mutans [5] (Mann Whitney U-test, statement in words) is “appeared to cause an increase rather than a decrease”. For the same molecule, the “Coverage (%) after 0.5 h” value in the assay with S. mutans [5] (no amino acid) turned out to be 42.31%. Moreover, the “Coverage (%) after 4.0 h” value in the assay on S. mutans [5] (no amino acid) stood at 74.21%.
